Data as given in US20220296595A1, “CDK INHIBITORS” (QILU REGOR THERAPEUTICS INC., priority 2019, published 2022).
Read-outs that look alike come from different tables or passages of the source.

Key:
[1] = target: T1, CDK4/CyclinD1 (Homo sapiens, UniProt P11802); test: Assay for inhibition of CDK4/CyclinD1 (Caliper microfluidic kinase assay); format: biochemical
T1 construct: purchased Thermofisher PR8064A
Summary of the method: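 Caliper microfluidic mobility-shift assay tracking phosphorylation of 1 μM FL-34 peptide by 1 nM CDK4/CyclinD1 with 200 μM ATP in HEPES pH 7.5 buffer with 10 mM MgCl2. Reaction ran 3 h at room temperature, was stopped with EDTA, and IC50 came from a 4-parameter sigmoidal fit.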

[2] = target: T2, CDK6/CyclinD3 (Homo sapiens, UniProt Q00534); test: Assay for inhibition of CDK6/CyclinD3 (Caliper microfluidic kinase assay); format: biochemical
T2 construct: purchased Carna 04-107
T2 sequence (Q00534 whole entry): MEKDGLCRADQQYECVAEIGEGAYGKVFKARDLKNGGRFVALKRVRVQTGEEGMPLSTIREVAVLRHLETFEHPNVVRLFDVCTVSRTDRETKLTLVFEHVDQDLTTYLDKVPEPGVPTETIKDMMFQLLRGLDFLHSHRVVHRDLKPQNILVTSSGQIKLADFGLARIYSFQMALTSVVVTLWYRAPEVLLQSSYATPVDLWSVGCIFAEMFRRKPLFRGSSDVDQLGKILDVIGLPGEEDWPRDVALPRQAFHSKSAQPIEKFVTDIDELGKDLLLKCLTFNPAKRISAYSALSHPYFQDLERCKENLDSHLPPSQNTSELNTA
T2 sequence (P30281 whole entry partner): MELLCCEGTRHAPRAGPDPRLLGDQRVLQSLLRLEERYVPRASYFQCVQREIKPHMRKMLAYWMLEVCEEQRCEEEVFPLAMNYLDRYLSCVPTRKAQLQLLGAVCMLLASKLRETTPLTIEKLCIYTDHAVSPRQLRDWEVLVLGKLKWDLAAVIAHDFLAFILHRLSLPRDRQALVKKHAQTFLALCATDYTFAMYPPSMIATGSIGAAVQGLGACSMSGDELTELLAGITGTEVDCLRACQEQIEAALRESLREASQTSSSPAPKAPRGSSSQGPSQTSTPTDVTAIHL
Summary of the method: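 Caliper mobility-shift readout of FAM-labelled peptide (FL-34, 1 μM) phosphorylation by 2 nM CDK6/CyclinD3 at 300 μM ATP in HEPES pH 7.5 buffer with MgCl2, DTT; 3 h at room temperature, EDTA stop. IC50 from 4-parameter sigmoidal fit.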

[3] = target: T3, CDK2/CyclinE1 (Homo sapiens, UniProt P24941); test: Assay for inhibition of CDK2/CyclinE1 (Caliper microfluidic kinase assay); format: biochemical; conditions: read-out: CDK2 IC50
T3 construct: purchased SignalChem C29-18G
Summary of the method: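 Caliper microfluidic mobility-shift assay: 5 nM CDK2/CyclinE1, 100 μM ATP, 5 μM FL-18 peptide (5-FAM-QSPKKG-NH2) in pH 7.5 HEPES buffer with MgCl2, DTT, BSA, Triton X-100. Incubated 3 hours at room temperature, EDTA-stopped; IC50 from 4-parameter sigmoidal fit.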

[4] = system: T47D breast cancer cells; test: Anti-proliferation assay in T47D cell (Cyquant, day 6); format: cell-based, human; conditions: read-out: T47D IC50
Summary of the method: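 Cells were grown in RPMI 1640 with 10% FBS at 37 °C and dosed the day after plating at ten concentrations, 10 μM to 0.51 nM in 3-fold steps. CyQuant fluorescence (ex 485/em 535 nm) was read on day 6. IC50 was fitted from baseline-subtracted viability curves, with the baseline read after overnight culture.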

[5] = system: phosphorylation of Retinoblastoma Protein (pRb Ser807/811 or Ser780) in T47D cells; test: Inhibition of phosphorylation of retinoblastoma protein (pRb) in T47D cell (ELISA); format: cell-based, human
Experimental: T47D breast cancer cells from American Type Culture Collection (ATCC, HTB-133) were plated at 40,000 cells/well in 96-well plates, and were incubated in RPMI 1640 medium (Gibco, 31800105) with 10% Fetal Bovine Serum (FBS, Biowest, FB-1058). Cells were then allowed to adhere overnight at 37° C., 5% CO2. The following day, compounds were titrated in a 3-fold dilution scheme, and the highest compound concentration tested was […]. After 24 hours incubation with compounds, cells were lysed in ice-cold lysis buffer containing phosphatase inhibitor cocktail and 1 mM PMSF. Cell lysates (50 μL/well) were then transferred to ELISA plates (pRb Ser807/811 ELISA kit, Cell Signaling, 13152 or pRb Ser780 ELISA kit, Cell Signaling, 13016)). Plates were incubated overnight at 4° C., with constant slow speed shaking. After incubation, plates were washed following manufacturer's recommendations, and then 100 μL reconstituted detection antibody was added to each well and incubated for 1 hour at 37° C. After incubation, plates were washed, and then 100 μL reconstituted HRP-linked secondary antibody was added to each well and incubated for 30 mins at 37° C. After incubation, plates were washed. Then, 100 μL TMB substrate was added to each well and incubated for 10 min at 37° C. or 30 min at 25° C. Finally, 100 μL of STOP solution was added to each well and mixed gently for a few seconds. Plates were read on the Envision plate reader (PerkinElmer, 2104-0010) using the 96-well […] mode. IC50 values were calculated using 4 parameter sigmoidal dose-response model of Xlfit5/GraphPad Prism 5 software.

[6] = Homo sapiens, T47D, anti-proliferation, T47D cells
[7] = Homo sapiens, T47D, read-out: Phospho T47D Ser807 IC50, pRb Ser807 phosphorylation, T47D cells

T1 sequence (P11802 whole entry): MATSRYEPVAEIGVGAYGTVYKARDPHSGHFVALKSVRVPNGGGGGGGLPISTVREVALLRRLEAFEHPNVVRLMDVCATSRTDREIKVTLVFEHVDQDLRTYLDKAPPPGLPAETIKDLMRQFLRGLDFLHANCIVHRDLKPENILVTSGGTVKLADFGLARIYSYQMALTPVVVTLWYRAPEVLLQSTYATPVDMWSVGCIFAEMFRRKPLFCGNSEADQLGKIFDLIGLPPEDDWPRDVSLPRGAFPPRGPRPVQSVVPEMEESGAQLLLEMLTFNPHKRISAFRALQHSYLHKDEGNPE
T1 sequence (P24385 whole entry partner): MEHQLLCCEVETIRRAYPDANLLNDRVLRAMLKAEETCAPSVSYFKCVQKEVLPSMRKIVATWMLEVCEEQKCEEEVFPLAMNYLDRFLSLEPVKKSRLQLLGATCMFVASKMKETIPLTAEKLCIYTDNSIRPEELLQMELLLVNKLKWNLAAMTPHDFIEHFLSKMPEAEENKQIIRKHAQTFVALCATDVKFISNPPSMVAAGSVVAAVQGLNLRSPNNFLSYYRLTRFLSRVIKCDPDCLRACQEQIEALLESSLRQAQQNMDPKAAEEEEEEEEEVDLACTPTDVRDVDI

Row | Structure (SMILES) | IC50 ([1]; CDK4/CyclinD1, 200 μM ATP) [nM] | IC50 ([2]; CDK6/CyclinD3, 300 μM ATP) [nM] | IC50 ([3]; CDK2/CyclinE1, 100 μM ATP) [nM] | IC50 [4, 6] [nM] | IC50 [5, 7] [nM] | IC50 ([4]; anti-proliferation, T47D cells) [nM] | IC50 ([5]; read-out: Phospho T47D Ser807 IC50, pRb Ser807 phosphorylation, T47D cells) [nM] | IC50 ([4]; Homo sapiens, T47D) [nM] | IC50 ([5]; Homo sapiens, T47D, read-out: Phospho T47D Ser807 IC50) [nM] | IC50 ([1]; CDK4/CyclinD1) [nM] | IC50 ([2]; CDK6/CyclinD3) [nM] | IC50 ([3]; CDK2/CyclinE1) [nM]
1 | COc1nc(-c2nc(Nc3ccc(N4CCC(N(C)C)CC4=O)cn3)ncc2F)cc2c1nc(C)n2C(C)C (single isomer, unassigned) [Example 62-1, 4-(dimethylamino)-1-[6-[[5-fluoro-4-(1-isopropyl-4-methoxy-2-methyl-imidazo[4,5-c]pyridin-6-yl)pyrimidin-2-yl]amino]-3-pyridyl]piperidin-2-one] | < 10 | 10 to 100 | > 1000 | 100 to 500 | 100 to 500 | – | – | – | – | – | – | –
2 | COc1nc(-c2nc(Nc3ccc(N4CCC(N(C)C)CC4=O)cn3)ncc2F)cc2c1nc(C)n2C(C)C (single isomer, unassigned) [Example 62-2, 4-(dimethylamino)-1-[6-[[5-fluoro-4-(1-isopropyl-4-methoxy-2-methyl-imidazo[4,5-c]pyridin-6-yl)pyrimidin-2-yl]amino]-3-pyridyl]piperidin-2-one] | < 10 | 10 to 100 | > 1000 | – | – | < 100 | < 100 | – | – | – | – | –
3 | CNC1CCN(c2ccc(Nc3nccc(-c4ccn5ncc(C(C)C)c5c4)n3)nc2)C(=O)C1 (single isomer, unassigned) [Synthetic Example 205, 1-[6-[[4-(3-isopropylpyrazolo[1,5-a]pyridin-5-yl)pyrimidin-2-yl]amino]-3-pyridyl]-4-(methylamino)piperidin-2-one] | < 10 | < 10 | < 10 | < 100 | < 100 | – | – | – | – | – | – | –
4 | CC(C)c1cnn2ccc(-c3ccnc(Nc4ccc(N5CCCNC5=O)cn4)n3)cc12 [Synthetic Example 1] | < 10 | 10 to 100 | 100 to 1000 | < 100 | < 100 | – | – | – | – | – | – | –
5 | CC(C)c1cnn2ccc(-c3nc(Nc4ccc(N5CCNCC5=O)cn4)ncc3F)cc12 [Synthetic Example 29] | < 10 | 10 to 100 | 10 to 100 | < 100 | < 100 | – | – | – | – | – | – | –
6 | CC(C)c1cnn2ccc(-c3ccnc(Nc4ccc(N5CC(N(C)C)CC5=O)cn4)n3)cc12 (stereo not shown) [Synthetic Example 39] | < 10 | 10 to 100 | 10 to 100 | < 100 | < 100 | – | – | – | – | – | – | –
7 | CC(C)c1cnn2ccc(-c3ccnc(Nc4ccc(N5CCN(C6CNC6)CC5=O)cn4)n3)cc12 [Synthetic Example 40] | < 10 | 10 to 100 | 10 to 100 | – | – | – | – | < 100 | < 100 | – | – | –
8 | CC(C)c1cnn2ccc(-c3nc(Nc4ccc(N5CCN(C6COC6)CCC5=O)cn4)ncc3F)cc12 [Synthetic Example 43] | < 10 | 10 to 100 | 10 to 100 | < 100 | < 100 | – | – | – | – | – | – | –
9 | CC(C)n1cnc2c1CN(c1ccnc(Nc3ccc(N4CCOCC4=O)cn3)n1)CC2 [Synthetic Example 57] | < 10 | 100 to 1000 | 10 to 100 | 100 to 500 | < 100 | – | – | – | – | – | – | –
10 | CC1(C)COc2c(F)cc(-c3ccnc(Nc4ccc(N5CCNCC5=O)cn4)n3)cc21 [Synthetic Example 59] | < 10 | 10 to 100 | 10 to 100 | < 100 | < 100 | – | – | – | – | – | – | –
11 | CC(C)n1cnc2c(F)nc(-c3ccnc(Nc4ccc(N5CCOCC5=O)cn4)n3)cc21 [Synthetic Example 61] | < 10 | 10 to 100 | 10 to 100 | < 100 | < 100 | – | – | – | – | – | – | –
12 | COc1nc(-c2nc(Nc3ccc(N4CCC(N(C)C)CC4=O)cn3)ncc2F)cc2c1nc(C)n2C(C)C (stereo not shown) [Synthetic Example 62, 4-(dimethylamino)-1-[6-[[5-fluoro-4-(1-isopropyl-4-methoxy-2-methyl-imidazo[4,5-c]pyridin-6-yl)pyrimidin-2-yl]amino]-3-pyridyl]piperidin-2-one] | < 10 | 10 to 100 | > 1000 | < 100 | < 100 | – | – | – | – | – | – | –
13 | COc1nc(-c2nc(Nc3ccc(N4CCNCC4)cn3)ncc2F)cc2c1nc(C)n2C(C)C [Synthetic Example 106] | < 10 | 10 to 100 | > 1000 | 100 to 500 | < 100 | – | – | – | – | – | – | –
14 | COc1nc(-c2nc(Nc3ccc(N4CCN(S(C)(=O)=O)CC4=O)cn3)ncc2F)cc2c1nc(C)n2C(C)C [Synthetic Example 127] | < 10 | 10 to 100 | 100 to 1000 | 100 to 500 | 100 to 500 | – | – | – | – | – | – | –
15 | CCN1CCN(c2ccc(Nc3ncc(F)c(-c4cc5c(nc(C)n5C(C)C)c(OC)n4)n3)nc2)C(=O)C1 [Synthetic Example 128] | < 10 | 10 to 100 | > 1000 | – | < 100 | – | – | 100 to 500 | – | – | – | –
16 | CN(C)C1CCN(c2ccc(Nc3nccc(-c4ccn5ncc(C(C)(C)C)c5c4)n3)nc2)C(=O)C1 (stereo not shown) [Synthetic Example 175] | < 10 | < 10 | < 10 | < 100 | < 100 | – | – | – | – | – | – | –
17 | CNC1CCN(c2ccc(Nc3nccc(-c4ccn5ncc(C(C)C)c5c4)n3)nc2)C(=O)C1 (stereo not shown) [Synthetic Example 204, 1-[6-[[4-(3-isopropylpyrazolo[1,5-a]pyridin-5-yl)pyrimidin-2-yl]amino]-3-pyridyl]-4-(methylamino)piperidin-2-one] | < 10 | < 10 | < 10 | < 100 | < 100 | – | – | – | – | – | – | –
18 | CCN1CCN(Cc2ccc(Nc3ncc(F)c(-c4cc(C)n5ncc(C(C)C)c5c4)n3)nc2)CC1 [compound 5] | 10 to 100 | 100 to 1000 | – | > 1000 | > 1000 | – | – | – | – | – | – | –
19 | CCN1CCN(c2ccc(Nc3nccc(-c4cc5c(ncn5C(C)C)c(F)n4)n3)nc2)CC1 [compound 289] | < 10 | < 10 | 100 to 1000 | – | < 100 | – | – | – | – | – | – | –
20 | COc1nc(-c2ccnc(Nc3ccc(N4CCC(C)(N)CC4=O)cn3)n2)cc2c1ncn2C(C)C (stereo not shown) [compound 313] | – | – | – | – | < 100 | – | – | – | – | 10 to 100 | < 10 | 100 to 1000
